Legend:
[1] = system: microglia cells; experiment: ROS production assay (DCFDA) in microglia cells; format: cell-based, Human; conditions: 1 μM of free ARVs or NPs with respect to the loaded drug, 24 h
Protocol: ROS Production Assay in Microglia Cells: The ROS generation in the microglia cells were determined using DCFDA assay. Microglia cells were plated in the white wall coated 96-well plate with density of 20,000 cells per well and grown for 16 h. The SQV, EFV, DRV, DTG, EVG and their nanoformulations were added to the cells at concentration of 1 μM with respect to the ARTs for 24 h. After 24 h, the media was collected and used to determine IL-1β, an inflammation maker using commercially available kit. The DCFDA solution was made in media at the concentration of 100 μM. 100 μL of this solution was added to each well and cells were incubated for 30 min. […] The obtained values were normalized using BCA assay.

[2] = system: microglia cells; experiment: Seahorse MitoStress assay; conditions: 500 μM, 24 h

Row | Structure (SMILES) | ROS generation [1] | ATP production [2] | basal respiration [2] | maximal respiration [2]
1 | CC(C)CN(C[C@@H](O)[C@H](Cc1ccccc1)NC(=O)O[C@H]1CO[C@H]2OCC[C@H]21)S(=O)(=O)c1ccc(N)cc1 [Darunavir] | increased ROS significantly |  |  | 
2 | C[C@@H]1CCO[C@H]2Cn3cc(C(=O)NCc4ccc(F)cc4F)c(=O)c(O)c3C(=O)N12 [Dolutegravir] | increased ROS significantly |  |  | 
3 | O=C1Nc2ccc(Cl)cc2[C@@](C#CC2CC2)(C(F)(F)F)O1 [Efavirenz] | increased ROS significantly |  |  | 
4 | COc1cc2c(cc1Cc1cccc(Cl)c1F)c(=O)c(C(=O)O)cn2[C@H](CO)C(C)C [Elvitegravir] | increased ROS significantly |  |  | 
5 | COC(=O)[C@H]1[C@@H](OC(=O)c2ccccc2)C[C@@H]2CC[C@H]1N2C [cocaine] |  | substantially decreased | substantially decreased | substantially decreased
6 | CN[C@@H](C)Cc1ccccc1 [meth, methamphetamine] |  | substantially decreased | substantially decreased | substantially decreased

Reference: patent US20240342106A1, “NANOPARTICLES AND USES THEREOF FOR TREATMENT OF HUMAN IMMUNODEFICIENCY VIRUS” (UNIVERSITY OF MIAMI, priority 2021, published 2024)
